According to ChEMBL document CHEMBL1201862, “PubChem BioAssay data set” (2004):
Blank lines part the entries; values can stand above or below the compound they belong to. Calls of active or inactive are those of the source.

Experiments:
[1] = target: T1, High affinity choline transporter 1 (Homo sapiens, UniProt Q9GZV3); assay: human choline transporter blockers, potency – cell-based, 5-point CRC, membrane potential dye, dose response (AID 504840); assay type: functional
T1 sequence (Q9GZV3 whole entry): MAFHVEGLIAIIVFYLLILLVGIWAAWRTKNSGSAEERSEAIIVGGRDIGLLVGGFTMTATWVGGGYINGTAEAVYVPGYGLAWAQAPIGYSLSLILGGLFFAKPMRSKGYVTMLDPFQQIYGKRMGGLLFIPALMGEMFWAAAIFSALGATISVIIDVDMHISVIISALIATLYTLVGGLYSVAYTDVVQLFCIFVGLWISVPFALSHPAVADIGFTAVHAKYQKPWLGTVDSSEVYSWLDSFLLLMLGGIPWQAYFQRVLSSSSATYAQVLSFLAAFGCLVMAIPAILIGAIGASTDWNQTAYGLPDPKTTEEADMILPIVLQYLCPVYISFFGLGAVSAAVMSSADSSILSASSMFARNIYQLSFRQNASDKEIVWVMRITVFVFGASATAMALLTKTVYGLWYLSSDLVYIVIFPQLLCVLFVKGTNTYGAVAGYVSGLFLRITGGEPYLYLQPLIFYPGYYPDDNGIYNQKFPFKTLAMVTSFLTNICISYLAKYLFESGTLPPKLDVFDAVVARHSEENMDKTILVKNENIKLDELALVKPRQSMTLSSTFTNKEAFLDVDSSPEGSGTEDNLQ

[2] = Luminescence Cell-Based Dose Confirmation HTS to Identify Inhibitors of Platelet Dense Granule Release. [Related pubchem assays: 1663 (Primary HTS), 1678 (Summary of Project)]; assay type: functional
P388/ADR = assay: cells; assay type: functional; details: Mus musculus
SN12K1 = assay: cells; assay type: functional; details: Homo sapiens
P388 = assay: cells; assay type: functional; details: Mus musculus
[3] = target: T1, High affinity choline transporter 1; assay: human choline transporter blockers, potency – cell-based, 10-point CRC, membrane potential dye, dose response (AID 588401); assay type: functional;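 further: membrane potential dye fluorescence of choline-evoked depolarization via CHT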
[4] = target: ATP-dependent molecular chaperone HSP82 (Candida albicans (strain WO-1) (Yeast), UniProt C4YTQ8); assay: steroid-induced GRE reporter decrease in yeast – S. cerevisiae, luminescence, Hsp90 inhibitor project, dose response (AID 2400); assay type: functional, cell-based;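 further: beta-galactosidase luminescence from glucocorticoid response element reporter as proxy for Hsp90 function; inhibitor potency where signal loss means Hsp90 inhibition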
[5] = NIH-3T3 fibroblast cytotoxicity, dose response, cytotoxicity control, cell-based, fluorescence, Alamar Blue, secondary assay (AID 2327); assay type: functional;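 further: NIH-3T3 mouse fibroblasts cultured with fluconazole at 8 µg/mL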
Cytochrome P450 2C19 = Cytochrome P450 2C19 (Homo sapiens, UniProt P33261); assay: Cytochrome panel assay with activity outcomes. Panel member name: p450-cyp2c19 Compounds with AC50 equal or less than 10 uM are considered active; assay type: functional
[6] = fluconazole-exposed Candida albicans growth modulators – fluorescence, retest, confirmation (AID 2467); assay type: functional, cell-based
[7] = target: T2, Serine/threonine-protein phosphatase (Candida dubliniensis (strain CD36 / CBS 7987 / NCPF 3949 / NRRLY-17841) (Yeast), UniProt B9W6M3); assay: blockers of CaCl2-induced CDRE-lacZ signaling – S. cerevisiae, luminescence, secondary, dose response (AID 2388); assay type: functional, cell-based;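 further: yeast reporter cells carrying a calcineurin-responsive lacZ construct stimulated with calcium chloride; luminescent beta-galactosidase reporter signal in whole cells rather than isolated phosphatase activity; potency for inhibition where a drop in reporter signal means calcineurin blockade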
T2 sequence (B9W6M3 whole entry): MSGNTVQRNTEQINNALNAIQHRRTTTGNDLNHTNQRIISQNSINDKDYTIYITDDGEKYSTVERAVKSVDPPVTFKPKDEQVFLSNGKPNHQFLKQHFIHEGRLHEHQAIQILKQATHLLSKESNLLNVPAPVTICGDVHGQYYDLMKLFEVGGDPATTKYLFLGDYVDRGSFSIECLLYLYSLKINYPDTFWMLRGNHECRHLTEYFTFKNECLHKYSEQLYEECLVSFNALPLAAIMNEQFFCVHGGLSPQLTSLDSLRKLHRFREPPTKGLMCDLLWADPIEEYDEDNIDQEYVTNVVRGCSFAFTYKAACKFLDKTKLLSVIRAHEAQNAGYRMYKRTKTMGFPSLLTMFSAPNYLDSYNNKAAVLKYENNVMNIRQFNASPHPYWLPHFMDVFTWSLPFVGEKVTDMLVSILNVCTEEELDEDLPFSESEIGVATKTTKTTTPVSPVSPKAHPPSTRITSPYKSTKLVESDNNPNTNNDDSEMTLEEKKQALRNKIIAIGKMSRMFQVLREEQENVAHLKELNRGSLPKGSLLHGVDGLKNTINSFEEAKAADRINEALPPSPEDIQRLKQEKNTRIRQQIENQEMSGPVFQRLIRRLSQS

Vero = assay: viability of Vero cells under compound – cytotoxicity control for flavivirus capping enzyme inhibitors (AID 588742); assay type: functional; details: Chlorocebus sabaeus
Bcl-2-related protein A1 = target: T3, Bcl-2-related protein A1 (Mus musculus, UniProt Q07440); assay type: functional;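 further: confirmatory dose–response counterscreen on Bfl-1, used to check hits from a UBC13 polyubiquitin inhibitor campaign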
T3 sequence (Q07440 whole entry): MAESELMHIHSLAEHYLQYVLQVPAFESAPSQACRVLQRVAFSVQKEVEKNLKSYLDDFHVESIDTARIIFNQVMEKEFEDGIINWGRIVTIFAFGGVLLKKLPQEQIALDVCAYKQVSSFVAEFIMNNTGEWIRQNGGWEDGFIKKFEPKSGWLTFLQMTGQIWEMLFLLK

[8] = target: T4, Ubiquitin-conjugating enzyme E2 N (Homo sapiens, UniProt P61088); assay type: functional
T4 sequence (P61088 whole entry): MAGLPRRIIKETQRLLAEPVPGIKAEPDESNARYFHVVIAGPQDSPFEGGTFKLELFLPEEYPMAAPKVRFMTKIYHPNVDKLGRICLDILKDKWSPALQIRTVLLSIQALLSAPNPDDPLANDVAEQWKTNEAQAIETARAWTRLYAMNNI

[9] = target: T4, Ubiquitin-conjugating enzyme E2 N; assay type: functional; remark: listed apart in the source
Cytochrome P450 2C9 = Cytochrome P450 2C9 (Homo sapiens, UniProt P11712)
[10] = target: T5, RNA-binding protein pos-1 (Caenorhabditis elegans, UniProt G5EF15); assay: disruptors of C. elegans POS-1 RNA interaction – biochemical, fluorescence polarization, dose response (AID 1964);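 further: purified POS-1 fused to maltose binding protein made in E. coli; potency of compounds blocking POS-1 binding to fluorescent RNA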
T5 sequence (G5EF15 whole entry): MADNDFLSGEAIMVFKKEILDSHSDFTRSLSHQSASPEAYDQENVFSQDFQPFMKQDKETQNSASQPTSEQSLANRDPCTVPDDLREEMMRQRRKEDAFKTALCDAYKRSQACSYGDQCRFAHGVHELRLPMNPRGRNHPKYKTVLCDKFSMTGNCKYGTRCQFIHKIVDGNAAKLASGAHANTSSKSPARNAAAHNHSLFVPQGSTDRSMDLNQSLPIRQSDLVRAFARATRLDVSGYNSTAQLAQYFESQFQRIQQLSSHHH

Cytochrome P450 1A2 = target: T6, Cytochrome P450 1A2 (Homo sapiens, UniProt P05177);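 further: PubChem cytochrome P450 panel assay, CYP1A2 panel member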
T6 sequence (P05177 whole entry): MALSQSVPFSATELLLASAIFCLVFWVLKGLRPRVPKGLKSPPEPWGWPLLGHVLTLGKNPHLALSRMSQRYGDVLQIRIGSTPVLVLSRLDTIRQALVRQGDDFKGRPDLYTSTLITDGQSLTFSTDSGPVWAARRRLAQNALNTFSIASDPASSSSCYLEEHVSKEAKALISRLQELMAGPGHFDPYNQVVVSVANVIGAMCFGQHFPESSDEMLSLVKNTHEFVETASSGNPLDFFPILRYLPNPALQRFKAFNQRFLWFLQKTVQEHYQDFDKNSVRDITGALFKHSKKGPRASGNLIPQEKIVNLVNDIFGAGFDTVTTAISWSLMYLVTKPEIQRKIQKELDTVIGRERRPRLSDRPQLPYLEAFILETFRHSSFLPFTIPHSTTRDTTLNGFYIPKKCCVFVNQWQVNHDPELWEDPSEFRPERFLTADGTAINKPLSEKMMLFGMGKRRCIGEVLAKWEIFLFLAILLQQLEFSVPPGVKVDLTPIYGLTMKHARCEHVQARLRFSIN

[11] = target: T7, Zinc finger protein mex-5 (Caenorhabditis elegans, UniProt Q9XUB2); assay: potency of MEX-5 RNA-binding blockers – biochemical, C. elegans, fluorescence polarization, dose response (AID 1960)
T7 sequence (Q9XUB2 whole entry): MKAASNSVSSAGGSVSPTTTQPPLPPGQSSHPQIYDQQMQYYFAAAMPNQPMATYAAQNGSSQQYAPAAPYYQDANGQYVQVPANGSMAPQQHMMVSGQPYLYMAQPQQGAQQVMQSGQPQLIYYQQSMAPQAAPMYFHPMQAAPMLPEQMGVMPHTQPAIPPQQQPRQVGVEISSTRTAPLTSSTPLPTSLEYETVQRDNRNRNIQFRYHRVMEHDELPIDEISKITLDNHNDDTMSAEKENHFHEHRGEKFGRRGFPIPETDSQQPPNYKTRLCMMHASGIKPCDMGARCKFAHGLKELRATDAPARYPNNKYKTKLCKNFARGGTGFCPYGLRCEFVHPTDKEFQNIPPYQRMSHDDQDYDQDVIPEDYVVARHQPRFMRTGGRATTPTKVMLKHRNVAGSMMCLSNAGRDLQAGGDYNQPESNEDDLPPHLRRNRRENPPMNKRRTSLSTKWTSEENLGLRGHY

Genome polyprotein = Genome polyprotein (dengue virus type 2, UniProt P29990); assay: flavivirus cap methylation enzyme inhibition – biochemical, confirmation dose response, primary screen (AID 588689); assay type: functional
INS1 = assay: INS-1E survival protection against cytokine death – cell-based, luminescence, retest, dose response (AID 449756); assay type: functional; details: Rattus norvegicus;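 further: cell death triggered by IL-1 beta plus TNF-alpha plus IFN-gamma mixture; protective hits raise ATP signal compared with cytokine alone wells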
[12] = target: Heat shock protein HSP 90-alpha (Homo sapiens, UniProt P07900); assay type: functional, organism-based
[13] = MIN6 cell viability loss – mouse insulinoma, cytotoxicity control, dose response (AID 2122); assay type: functional;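 further: confirmatory high-throughput counterscreen run to flag cytotoxic compounds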
[14] = decrease of insulin promoter-GFP reporter – imaging, high-content screening, mouse beta cells (AID 1628); assay type: functional; details: MIN6
[15] = NIH3T3 cell viability loss – ATP luminescence, mouse fibroblasts, counter-screen, dose response (AID 2010); assay type: functional, cell-based;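 further: cells exposed to compound for about 90 hours before reading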
[16] = Trypanosoma cruzi growth suppression in host cells – NIH3T3 host cells, beta-gal luminescence, confirmation (AID 2044); assay type: functional, cell-based;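 further: intracellular parasites grown in NIH/3T3 mouse fibroblasts as host cells; luminescent beta-galactosidase reporter signal from transgenic T. cruzi replicating inside host cells; inhibitors lower the luminescence signal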
[17] = target: T8, Microphthalmia-associated transcription factor (Homo sapiens, UniProt O75030); assay: reducers of TRPM1 reporter luminescence, concentration series – cell-based, SK-MEL-5, cherry-picked, set 3, MITF inhibitor project, dose response (AID 493073); assay type: functional;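 further: SK-MEL-5 melanoma cells with luciferase driven by the MITF target TRPM1 promoter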
T8 sequence (O75030 whole entry): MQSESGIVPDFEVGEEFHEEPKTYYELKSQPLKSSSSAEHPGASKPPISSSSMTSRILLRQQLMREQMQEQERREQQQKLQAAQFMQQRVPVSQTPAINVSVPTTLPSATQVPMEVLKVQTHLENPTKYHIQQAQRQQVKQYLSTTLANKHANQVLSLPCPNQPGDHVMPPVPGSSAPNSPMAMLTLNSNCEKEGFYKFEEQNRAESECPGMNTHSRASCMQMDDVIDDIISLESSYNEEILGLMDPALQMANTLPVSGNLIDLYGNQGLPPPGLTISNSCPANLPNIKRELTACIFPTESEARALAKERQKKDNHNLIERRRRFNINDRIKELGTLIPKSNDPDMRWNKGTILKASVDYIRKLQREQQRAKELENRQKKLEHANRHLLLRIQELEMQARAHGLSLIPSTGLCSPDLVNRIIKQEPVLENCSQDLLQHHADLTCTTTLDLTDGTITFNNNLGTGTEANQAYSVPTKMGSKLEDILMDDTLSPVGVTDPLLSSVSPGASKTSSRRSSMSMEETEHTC

Chain of ATP-dependent molecular chaperone HSP82 (C4YTQ8 whole entry): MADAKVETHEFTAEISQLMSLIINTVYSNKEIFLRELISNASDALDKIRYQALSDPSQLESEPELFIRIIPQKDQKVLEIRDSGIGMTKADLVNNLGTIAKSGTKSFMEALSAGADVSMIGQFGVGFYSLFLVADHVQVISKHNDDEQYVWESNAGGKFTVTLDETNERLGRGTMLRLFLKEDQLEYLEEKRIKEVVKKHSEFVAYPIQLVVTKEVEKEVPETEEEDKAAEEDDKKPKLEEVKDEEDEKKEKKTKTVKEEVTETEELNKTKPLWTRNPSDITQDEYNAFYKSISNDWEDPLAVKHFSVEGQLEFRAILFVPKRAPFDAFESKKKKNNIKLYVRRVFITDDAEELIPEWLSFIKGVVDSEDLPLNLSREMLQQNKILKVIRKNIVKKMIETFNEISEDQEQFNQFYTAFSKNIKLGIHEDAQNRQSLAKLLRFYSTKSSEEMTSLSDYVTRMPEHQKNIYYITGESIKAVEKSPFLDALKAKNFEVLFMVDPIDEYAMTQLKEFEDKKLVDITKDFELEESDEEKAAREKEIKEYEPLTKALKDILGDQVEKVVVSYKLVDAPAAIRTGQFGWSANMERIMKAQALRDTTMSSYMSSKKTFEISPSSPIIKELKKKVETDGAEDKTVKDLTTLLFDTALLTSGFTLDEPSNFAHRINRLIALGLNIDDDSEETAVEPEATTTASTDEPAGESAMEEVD
Chain of Genome polyprotein (P29990 2492-3391 limits assumed): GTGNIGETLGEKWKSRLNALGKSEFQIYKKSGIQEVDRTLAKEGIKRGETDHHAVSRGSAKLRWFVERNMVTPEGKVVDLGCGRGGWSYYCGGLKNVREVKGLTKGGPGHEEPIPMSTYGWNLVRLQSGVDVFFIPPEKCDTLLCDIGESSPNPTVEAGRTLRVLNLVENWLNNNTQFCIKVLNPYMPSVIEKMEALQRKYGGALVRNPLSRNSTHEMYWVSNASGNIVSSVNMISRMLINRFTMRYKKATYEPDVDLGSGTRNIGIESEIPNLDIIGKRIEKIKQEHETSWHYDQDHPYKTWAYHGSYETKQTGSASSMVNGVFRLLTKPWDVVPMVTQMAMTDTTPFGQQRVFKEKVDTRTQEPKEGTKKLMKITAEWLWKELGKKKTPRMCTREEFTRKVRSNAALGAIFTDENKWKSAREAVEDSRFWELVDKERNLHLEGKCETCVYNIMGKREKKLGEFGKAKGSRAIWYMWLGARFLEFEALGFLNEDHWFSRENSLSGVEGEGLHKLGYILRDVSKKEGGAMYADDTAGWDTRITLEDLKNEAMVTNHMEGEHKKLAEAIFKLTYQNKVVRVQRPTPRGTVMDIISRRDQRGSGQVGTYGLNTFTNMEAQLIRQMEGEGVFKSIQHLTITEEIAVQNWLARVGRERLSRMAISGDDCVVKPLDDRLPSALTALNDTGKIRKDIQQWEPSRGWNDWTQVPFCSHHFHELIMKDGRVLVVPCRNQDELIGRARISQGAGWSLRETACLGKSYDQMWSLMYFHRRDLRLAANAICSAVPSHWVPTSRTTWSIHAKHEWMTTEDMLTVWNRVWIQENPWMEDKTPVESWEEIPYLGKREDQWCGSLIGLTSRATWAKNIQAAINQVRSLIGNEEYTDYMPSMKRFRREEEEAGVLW
Chain of Cytochrome P450 2C9 (P11712 whole entry, the tested form may be a part): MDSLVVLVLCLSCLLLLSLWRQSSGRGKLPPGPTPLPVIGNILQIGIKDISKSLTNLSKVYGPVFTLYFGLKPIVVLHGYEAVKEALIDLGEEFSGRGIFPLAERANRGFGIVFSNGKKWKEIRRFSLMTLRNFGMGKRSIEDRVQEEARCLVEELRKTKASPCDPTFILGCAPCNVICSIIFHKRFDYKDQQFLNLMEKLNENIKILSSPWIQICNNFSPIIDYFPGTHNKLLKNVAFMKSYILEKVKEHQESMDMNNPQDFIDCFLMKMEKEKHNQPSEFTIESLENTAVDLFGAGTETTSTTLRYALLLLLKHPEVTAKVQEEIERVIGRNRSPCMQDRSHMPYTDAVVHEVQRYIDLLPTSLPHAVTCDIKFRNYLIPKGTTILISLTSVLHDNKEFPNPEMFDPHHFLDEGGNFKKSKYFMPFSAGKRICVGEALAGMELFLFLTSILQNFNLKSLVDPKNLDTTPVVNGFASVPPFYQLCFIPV
Chain of Cytochrome P450 2C19 (P33261 whole entry): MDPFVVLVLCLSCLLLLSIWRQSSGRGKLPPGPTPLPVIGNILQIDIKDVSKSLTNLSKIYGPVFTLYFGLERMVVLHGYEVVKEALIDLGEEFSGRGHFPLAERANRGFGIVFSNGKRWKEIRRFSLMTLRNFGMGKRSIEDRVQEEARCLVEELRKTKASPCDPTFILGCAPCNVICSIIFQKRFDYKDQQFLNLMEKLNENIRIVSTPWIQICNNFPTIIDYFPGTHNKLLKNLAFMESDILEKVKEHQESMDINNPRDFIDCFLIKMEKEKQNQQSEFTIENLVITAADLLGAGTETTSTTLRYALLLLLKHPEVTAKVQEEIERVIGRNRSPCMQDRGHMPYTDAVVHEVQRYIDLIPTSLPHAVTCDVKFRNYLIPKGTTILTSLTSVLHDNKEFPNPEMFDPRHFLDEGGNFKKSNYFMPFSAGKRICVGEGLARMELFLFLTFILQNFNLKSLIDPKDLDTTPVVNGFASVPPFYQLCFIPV

Compound: Nc1ncnc2c1ncn2C1OC(CO)C(O)C1O (stereo not drawn)
IC50 [1]: 0.588 µM (active) | EC50 [2]: 1.55 µM (active) | GI50 (P388/ADR): 14.5 µM (inactive) | GI50 (SN12K1): > 74 µM (inactive) | GI50 (P388): 16.4 µM (inactive) | IC50 [3]: 0.515 µM (active)

Compound: Cc1nnc(NC(=O)CSc2ncnc3c2cnn3-c2ccccc2C)s1
EC50 [4]: > 150 µM (inactive) | EC50 [5]: > 150 µM (inactive) | AC50 (Cytochrome P450 2C19): inconclusive | EC50 [6]: 0.573 µM (active) | EC50 [7]: > 180 µM (inactive)

IC50 [1]: 1.66 µM (active) | IC50 [3]: 4.74 µM (active)
Compound: CN1CCN(c2oc(Cc3cccc4ccccc34)nc2C#N)CC1

Compound: Cc1nn(-c2ccccn2)c2nc(-c3cccs3)cc(C(=O)NCc3ccco3)c12
CC50 (Vero): > 40 µM (active)

Compound: O=C(COC(=O)c1cc(-c2ccc(Cl)s2)nc2ccccc12)NCc1ccco1
CC50 (Vero): > 40 µM (active)

IC50 (Bcl-2-related protein A1): > 20 µM (inactive) | IC50 [8]: 1.47 µM (active) | IC50 [9]: 9.62 µM (active)
Compound: CC1(C)Cc2c(sc(NC(=O)C(=O)N3CCCC3)c2C(N)=O)CO1

IC50 (Bcl-2-related protein A1): > 20 µM (inactive) | IC50 [8]: 3.37 µM (active) | IC50 [9]: 8.84 µM (active)
Compound: Cn1cncc1C#Cc1c(-c2ccc(S(C)(=O)=O)cc2)sc2ccccc12

AC50 (Cytochrome P450 2C9): 3.16 µM (inconclusive) | EC50 [10]: > 300 µM (not active) | AC50 (Cytochrome P450 1A2): 7.08 µM (inconclusive) | EC50 [11]: 234 µM (inconclusive) | IC50 (Genome polyprotein): 26.3 µM (active)
Compound: COc1cc(/C=N\Nc2ccc([N+](=O)[O-])cc2)ccc1OCC(=O)Nc1ccc(C)c(C)c1
CC50 (Vero): > 40 µM (active)

Compound: O=C(N/N=C/c1ccc(O)c2ncccc12)c1cccc(Br)c1
EC50 [4]: 22.2 µM (active) | EC50 [5]: > 160 µM (inactive) | AC50 (INS1): 1.22 µM (active) | AC50 [12]: 3.83 µM (active) | IC50 [13]: 1.68 µM (active) | IC50 [14]: 1.67 µM (active) | EC50 [15]: 5.44 µM (active) | EC50 [16]: 1.66 µM (active) | EC50 [6]: 0.729 µM (active) | AC50 [17]: 7.28 µM (active) | EC50 [7]: > 180 µM (inactive)
